Holding throughout (type): in vivo, C57BL/6 mice
The subject of test [1] is bleomycin-induced pulmonary fibrosis model. The test is described as follows: Advanced pulmonary fibrosis: bleomycin-induced model, dosing from three weeks after modelling. The note with it: advanced pulmonary fibrosis, 120 mg/kg/d intragastric, 14 days, from three weeks after model; for Leucocyte / Lymphocyte / Neutrophil: blood, Day 15, twice every day; for Ashcroft scores: lung tissue HE staining.

Test [2] concerns Streptococcus pneumoniae-induced pulmonary fibrosis model. The experiment in a line: Streptococcus pneumoniae-induced pulmonary fibrosis model. The note with it: Streptococcus pneumoniae + bleomycin, 120 mg/kg/d intragastric, 14 days; for Leucocyte / Lymphocyte / Neutrophil: blood, Day 15, 3 times every day, from one week after model; for Ashcroft scores: lung tissue HE staining.
Test [3] has as its system influenza A virus-induced pulmonary fibrosis model (FM1 strain of influenza A (H1N1) virus). The experiment in a line: Influenza A virus-induced pulmonary fibrosis model. Conditions: 120 mg/kg/d intragastric, 14 days; for Ashcroft scores: influenza A virus + bleomycin, lung tissue HE; for IL-1β / IL-6 / NF-κB / TNF-α: serum, influenza A (H1N1) FM1 + bleomycin, from two weeks after model. From the text:
Experimental method: an in-vivo influenza A virus-induced pulmonary fibrosis model was established: C57BL/6 mice (with weights being 22-25 g) were randomly and evenly divided into a plurality of groups, including blank control group, model group, Nintedanib positive control group, hypoxanthine analogue A group, hypoxanthine analogue B group, hypoxanthine analogue C group, compound 1 group, compound 2 group . . . compound 12 group, with 9 mice in each group. On Day 1, the mice in blank control group were instilled with normal saline nasally, and the mice in other groups were all infected with a FM1 strain of an influenza A (H1N1) virus 30 (μL) through nasal instillation. On Day 2, the mice received 5 mg/kg bleomycin through tracheas to induce their pulmonary fibrosis. After the model was established for two weeks, the mice in each group were intragastrically administrated for intervention for consecutive 14 days; the mice in blank control group and model group intragastrically received the same dosage of the normal saline as those in drug groups; the mice in Nintedanib positive control group received Nintedanib (120 mg/kg); the mice in hypoxanthine analogue A group, hypoxanthine analogue B group and hypoxanthine analogue C group respectively received hypoxanthine analogue A (120 mg/kg/d), hypoxanthine analogue B (120 mg/kg/d) and hypoxanthine analogue C (120 mg/kg/d); and the mice in compound 1 group, compound 2 group . . . compound 12 group respectively received compound 1 (120 mg/kg/d), compound 2 (120 mg/kg/d) . . . compound 12 (120 mg/kg/d) prepared in example 1. After administration for consecutive 14 days, the mice were observed every day, and their weights and death conditions were recorded. After administration, blood was taken from eyeballs for immediately detecting the expression levels of NF-κB, TNF-α, IL-1 and IL-6 in serum, and lung tissues were taken for HE detection and Ashcroft scoring.

The test system of test [4] is mycoplasma-induced pulmonary fibrosis model (MPFH strain). The experiment in a line: Mycoplasma-induced pulmonary fibrosis model. The note with it: 120 mg/kg/d intragastric, 14 days; for Leucocyte / Lymphocyte / Neutrophil: MPFH mycoplasma + bleomycin, once a day, from two weeks after model; for Ashcroft scores: mycoplasma + bleomycin, lung tissue HE. The text has this: Experimental method: an in-vivo mycoplasma-induced pulmonary fibrosis model was established: C57BL/6 mice (with weights being 22-25 g) were randomly and evenly divided into a plurality of groups, including blank control group, model group, Nintedanib positive control group, hypoxanthine analogue A group, hypoxanthine analogue B group, hypoxanthine analogue C group, compound 1 group, compound 2 group . . . compound 12 group, with 9 mice in each group. Before a model was established, the mice were anesthetized with diethyl ether. In addition to that the mice in blank control group with instilled with 100 μL of normal saline nasally, the mice in other groups with slowly instilled with an equal volume of a MPFH strain solution (containing 1×10^7 mL^−1 MPFH strain) to the nasal cavity, for consecutive 3 days, and inhaled the MPFH strain solution into bronchi. After instillation with mycoplasmas through tracheas, the mice received 5 mg/kg bleomycin through tracheas to induce their pulmonary fibrosis. After the model was established for two weeks, the mice in each group were intragastrically administrated for intervention for consecutive 14 days; the mice in blank control group and model group intragastrically received an equal dosage of normal saline as those in drug groups; the mice in Nintedanib positive control group received Nintedanib (120 mg/kg); the mice in hypoxanthine analogue A group, hypoxanthine analogue B group and hypoxanthine analogue C group respectively received hypoxanthine analogue A (120 mg/kg/d), hypoxanthine analogue B (120 mg/kg/d) and hypoxanthine analogue C (120 mg/kg/d); and the mice in compound 1 group, compound 2 group . . . compound 12 group respectively received compound 1 (120 mg/kg/d), compound 2 (120 mg/kg/d) . . . compound 12 (120 mg/kg/d) prepared in example 1. The mice were administrated once a day to be treated for consecutive 14 days. The mice were observed every day, and their weights and death conditions were recorded. On the last day of administration, the mice were sacrificed; and blood was taken from eyeballs and kept at −80° C. for detecting blood routine indexes. Meanwhile, lungs were lavaged with normal saline and separated to collect lavage fluids for detecting counts and classes of leucocytes; and lung tissues were taken for HE straining and Ashcroft scoring on the extent of pulmonary fibrosis.

Turning to `CC(C)Oc1ncnc2[nH]cnc12` [Compound 1], in test [1], the Leucocyte was 4.28 10^9/L, the Lymphocyte is 5.33 10^9/L, the Neutrophil is listed as 1.37 10^9/L and the Ashcroft scores was determined as 0.95. Also, in test [2], the Leucocyte is recorded as 5.52 10^9/L, the Lymphocyte was 5.99 10^9/L, the Neutrophil is 2.00 10^9/L and the Ashcroft scores is 1.20. In test [3], the Ashcroft scores was 1.21, the IL-1β was determined as 28.8 pg/mL, the IL-6 was found to be 63.9 pg/mL and the NF-κB is given as 26.5 pg/mL. Moreover, in test [3], the TNF-α is 87.1 pg/mL. Also, in test [4], the Leucocyte is 7.01 10^9/L, the Lymphocyte is recorded as 72.56 10^9/L, the Neutrophil is reported as 21.01 10^9/L and the Ashcroft scores is on record as 1.12.
Take `CC(C)n1cnc2c(=O)[nH]cnc21` [Compound 2]: in test [1], the Leucocyte was 4.16 10^9/L, the Lymphocyte is 5.29 10^9/L, the Neutrophil is on record as 1.26 10^9/L and the Ashcroft scores stood at 0.88. In test [2], the Leucocyte was 5.48 10^9/L, the Lymphocyte is listed as 5.95 10^9/L, the Neutrophil is recorded as 1.83 10^9/L and the Ashcroft scores amounted to 1.09. Further, in test [3], the Ashcroft scores is listed as 1.25, the IL-1β was found to be 27.1 pg/mL, the IL-6 amounted to 62.7 pg/mL and the NF-κB turned out to be 25.5 pg/mL. For the same compound, in test [3], the TNF-α worked out at 87.3 pg/mL. Also, in test [4], the Leucocyte is listed as 6.42 10^9/L, the Lymphocyte is on record as 72.69 10^9/L, the Neutrophil was 21.93 10^9/L and the Ashcroft scores was 1.20.
In the case of `CC(C)Oc1ncnc2c1ncn2C(C)C` [Compound 3], in test [1], the Leucocyte was 3.98 10^9/L, the Lymphocyte is reported as 5.18 10^9/L, the Neutrophil is given as 1.19 10^9/L and the Ashcroft scores worked out at 0.87. In test [2], the Leucocyte is on record as 5.62 10^9/L, the Lymphocyte was 5.77 10^9/L, the Neutrophil is given as 1.60 10^9/L and the Ashcroft scores turned out to be 1.01. In addition, in test [3], the Ashcroft scores is listed as 1.18, the IL-1β turned out to be 26.3 pg/mL, the IL-6 is on record as 62.9 pg/mL and the NF-κB is listed as 24.3 pg/mL. The TNF-α in test [3] was 86.1 pg/mL. Further, in test [4], the Leucocyte was 6.83 10^9/L, the Lymphocyte is 72.33 10^9/L, the Neutrophil was 22.12 10^9/L and the Ashcroft scores worked out at 0.96.
Turning to `CC(C)Oc1ncnc2ncn(C(C)C)c12` [Compound 4], in test [1], the Leucocyte is 4.26 10^9/L, the Lymphocyte is 5.63 10^9/L, the Neutrophil is 1.34 10^9/L and the Ashcroft scores amounted to 1.24. For the same compound, in test [2], the Leucocyte is reported as 6.99 10^9/L, the Lymphocyte is 6.84 10^9/L, the Neutrophil was 1.51 10^9/L and the Ashcroft scores stood at 1.29. In addition, in test [3], the Ashcroft scores amounted to 1.29, the IL-1β stood at 29.6 pg/mL, the IL-6 came to 65.1 pg/mL and the NF-κB worked out at 27.4 pg/mL. Also, the TNF-α in test [3] is given as 89.8 pg/mL. For the same compound, in test [4], the Leucocyte was 6.79 10^9/L, the Lymphocyte is on record as 73.37 10^9/L, the Neutrophil was 22.54 10^9/L and the Ashcroft scores is on record as 1.05.
Take `CC(C)Oc1ncnc2nc[nH]c12` [Compound 5]: in test [1], the Leucocyte was 4.34 10^9/L, the Lymphocyte is recorded as 5.74 10^9/L, the Neutrophil is recorded as 1.36 10^9/L and the Ashcroft scores worked out at 1.22. In test [2], the Leucocyte is recorded as 6.75 10^9/L, the Lymphocyte is given as 7.64 10^9/L, the Neutrophil is recorded as 1.82 10^9/L and the Ashcroft scores was found to be 1.25. In addition, in test [3], the IL-1β is listed as 28.1 pg/mL, the IL-6 stood at 65.6 pg/mL, the NF-κB is recorded as 27.7 pg/mL and the TNF-α is 90.2 pg/mL. In test [4], the Leucocyte was 6.86 10^9/L, the Lymphocyte is listed as 74.39 10^9/L, the Neutrophil was 21.91 10^9/L and the Ashcroft scores stood at 1.23.
Take `CC(C)n1cnc2nc[nH]c(=O)c21` [Compound 6]: in test [1], the Leucocyte is 4.58 10^9/L, the Lymphocyte was 5.94 10^9/L, the Neutrophil is recorded as 1.59 10^9/L and the Ashcroft scores was found to be 1.19. In test [2], the Leucocyte is given as 5.91 10^9/L, the Lymphocyte is 7.55 10^9/L, the Neutrophil is 1.88 10^9/L and the Ashcroft scores is 1.27. In addition, in test [3], the Ashcroft scores is given as 1.26, the IL-1β was found to be 28.5 pg/mL, the IL-6 stood at 66.1 pg/mL and the NF-κB is reported as 27.8 pg/mL. Further, the TNF-α in test [3] worked out at 90.3 pg/mL. Besides, in test [4], the Leucocyte is listed as 6.05 10^9/L, the Lymphocyte was 71.57 10^9/L, the Neutrophil is 22.72 10^9/L and the Ashcroft scores was determined as 1.17.
As for `COc1ncnc2c1ncn2C(C)C` [Compound 7], in test [1] (120 mg/kg/day), the Leucocyte is reported as 4.61 10^9/L, the Lymphocyte is reported as 5.65 10^9/L, the Neutrophil is listed as 1.44 10^9/L and the Ashcroft scores is 1.13. In addition, in test [2] (120 mg/kg/day), the Leucocyte is recorded as 6.39 10^9/L, the Lymphocyte is on record as 7.72 10^9/L, the Neutrophil was 1.88 10^9/L and the Ashcroft scores worked out at 1.29. In test [3], the Ashcroft scores was determined as 1.28, the IL-1β is reported as 29.0 pg/mL, the IL-6 stood at 65.3 pg/mL and the NF-κB is reported as 26.4 pg/mL. The TNF-α in test [3] is 91.2 pg/mL. Moreover, in test [4], the Leucocyte is recorded as 7.15 10^9/L, the Lymphocyte is on record as 73.29 10^9/L, the Neutrophil is listed as 21.45 10^9/L and the Ashcroft scores is on record as 1.25.
